Structures can show the parent of a compound that is named as a salt. Where two headings read alike, the source gives them in different places.
Key:
[1] = Humidity stress at 40° C./75% RH; format: physicochemical; details: 5-6 days
Procedure: The larger vials were capped, sealed with Parafilm and placed inside an oven at 40° C. for up to 6 days. Salts were then removed from these conditions and changes observed (e.g. color, deliquescence etc.) before being analyzed for weight change and by XRPD. Samples were examined visually after stressing, form composition confirmed by XRPD analysis and weight change recorded (Table 7).

[2] = Aqueous solubility by equilibration, HPLC analysis; format: physicochemical
Procedure: An aliquot of the UHQ water test solvent (1 mL) was added to an accurately weighed sample of the LA1 salts and agitated at ambient temperature for a period of 4 days. A sample was withdrawn, filtered through a […], and analyzed by HPLC. HPLC was used to determine aqueous equilibrium solubility at ambient temperature. […] Samples were slurried in water for 4-5 days before analysis.

[3] = test system: murine melanoma B16-F10 tumors; assay: Murine melanoma B16F10 allograft efficacy (Example 19); format: in vivo, C57BL/6 mice; details: 3 or 30 mg/kg daily for 15 days
Procedure: TUMOR CELLS. B16-F10 cells were cultured in DMEM cell culture medium supplemented with 10% FBS and 1% penicillin-streptomycin. The cells were maintained at 37° C. in […]. When the cells reached 75-80% confluence, they were harvested by trypsinization, washed, and counted. The cells were then re-suspended in serum free medium at a concentration of 0.1 million cells/75 μl.
TUMOR CELL INOCULATION. Cells were inoculated subcutaneously on the flank of black mice. Prior to inoculation, hair was trimmed and skin on the injection site (dorsal right flank) was swabbed with alcohol. Cells in serum free medium (0.1 million cells/75 μl) were mixed with Matrigel at a ratio of 3:1 and a total volume of 100 μl was injected into each animal with a 1 mL BD syringe attached to a 26 G needle.
RANDOMIZATION. Tumors were palpable around Day 7 of inoculation.
STATISTICAL CALCULATIONS. All statistical calculations were performed using Prism 5.0 (GraphPad Software Inc., USA). Comparisons of tumor size measurements during and at the termination of the study were made between the treatment groups and respective vehicle control groups using One Way ANOVA followed by Dunnett's multiple comparison tests. A p-value of less than 0.05 was considered significant.

[4] = Histopathology (Example 19); format: in vivo, C57BL/6 mice; details: also seen in one animal of the control group
Procedure: HISTOPATHOLOGY. Histopathological examination was conducted using liver, kidney, lung, spleen, heart, and stomach samples.

[5] = male, in vivo
Procedure: (§1) In a second experiment, the dose solution was prepared in Tween-80 (0.02%) and 0.5% methyl cellulose in Milli-Q water. IP (2 mg/kg) and IV (1 mg/kg) dose solutions were prepared in a 5% DMSO and 95% PEG-200.
(§2) The PO (2 mg/kg) dose solution was prepared in Tween-80 (0.02%) and 0.5% methyl cellulose in Milli-Q water. The IV (1 mg/kg) dose solution was prepared in a solution of 5% DMSO and 95% PEG-200.
(§3) The routes of administration were namely PO (gavage), IP (bolus) and IV (bolus through tail vein). A total of four SD male rats were used aged between 5-6 weeks. The feeding regimen included 12 h fasting and the feed was provided 2 hrs after the dosage inoculation and water was provided ad libidum. The blood collection schedule for PO/IP was at 0.25, 0.5, 1, 2, 4, 8, 10 and 24 h, and for IV it was at 0.12, 0.25, 0.5, 1, 2, 4, 8 and 24 h. For PO dosage, tween-80 (0.02%) and 0.5% methyl cellulose prepared in milli-Q water were used as vehicles; for IP and IV dosage 5% DMSO and 95% PEG-200 were used as vehicles.
(§4) Stock solution (178 μg/mL) in methanol was further diluted using methanol: water (80:20, v/v) to obtain working solutions in the range of 10.4 to 20745 ng/mL.
(§5) 50 μL of sample was aliquoted in to pre-labeled vials. To it was added 200 μL of 10% tetrahydrofuran containing IS (100 ng/mL; tolbutamide) and mixed well, vortexed for 5 min followed by centrifugation for 5 min at 14000 rpm for at 4° C. Supernatant was separated and 5 μL of same was injected on LC-MS/MS.
(§6) Data Analysis: Individual concentration-time data were analyzed using WinNonlin (Version 5.3) by non-compartmental analysis (NCA) method.
(§7) The routes of administration were namely PO (gavage) and IV (bolus through tail vein). A total of four SD male rats were used aged between 5-6 weeks. The feeding regimen included 12 h fasting and the feed was provided 2 hrs after the dosage inoculation and water was provided ad libitum. The blood collection schedule for PO was at 0.25, 0.5, 1, 2, 4, 8, 10 and 24 h, and for IV it was at 0.12, 0.25, 0.5, 1, 2, 4, 8 and 24 h. For PO dosage, tween-80 (0.02%) and 0.5% methyl cellulose prepared in milli-Q water were used as vehicles; for IV dosage 10% DMSO and 90% PEG-200 were used as vehicles.

in vivo = details: male, Sprague-Dawley, rat
Procedure: as §1, §2, §3, §4, §5, §6, §7

[6] = after slurrying in water 4-5 days
[7] = Sprague-Dawley, rat, ip, 2 mg/kg
[8] = Sprague-Dawley, rat, iv, 1 mg/kg
[9] = Sprague-Dawley, rat, po, 2 mg/kg

## O=C(O)c1ccc(-c2ccc(/C=C3\SC(=S)N(Cc4ccccc4)C3=O)o2)cc1 [LA1 meglumine salt]
[1]
  Weight gain (%): 1.4%
  XRPD after stressing: No change
[2]; UHQ water, thermodynamic from solid, water, ambient temperature, slurried 4-5 days, corrected for weight of counter-ion, read-out: Aq solub
  solubility: 724 µg/mL
[2]; [6]
  Appearance: No change
  Soln pH: 8
[2]; after slurrying in water 4-5 days (chemical stability)
  HPLC purity (%): 34.7%
[3]
  growth inhibition of B16-F10 tumors as compared to vehicle control: 58-66%
[4]
  microscopic examination of liver tissues: minimal to moderate hepatocellular necrosis in one animal
  tumor metastasis in lung tissue: Tumor metastasis was observed in lung tissue from one animal
[5]; Sprague Dawley, iv, 1 mg/kg
  Rat Cl: 17.5 mL/min/kg
[5]; Sprague Dawley, rat
  Vss: 0.74 L/kg
[5]; Sprague-Dawley
  Rat Cl: 18 mL/min/kg
[5]; Sprague-Dawley, ip, 2 mg/kg
  Rat F %: 167%
[5]; Sprague-Dawley, iv, 1 mg/kg
  Rat Cl: 17.5 mL/min/kg
[5]; Sprague-Dawley, po, 2 mg/kg
  Rat F %: 37.1%
[5]; Sprague-Dawley, rat
  % F (absolute IP bioavailability): > 100%
  F (absolute oral bioavailability): 37.1%
  Vss: 0.74 L/kg
[5]; [7]
  AUC0-t: 3252 ng·h/mL
  AUC0-∞: 3270 ng·h/mL
  Tlast: 17.0 h
  Tmax: 0.25 h
[5]; [8]
  AUC0-t: 967 ng·h/mL
  AUC0-∞: 978 ng·h/mL
  C0: 2142 ng/mL
  MRT: 0.91 h
  Tlast: 8.00 h
  Vd: 1.85 L/kg
[5]; [9]
  AUC0-t: 722 ng·h/mL
  AUC0-∞: 726 ng·h/mL
  Tlast: 10.0 h
In vivo; F (absolute oral bioavailability)
  bioavailability: 37%
In vivo; po, 2 mg/kg, MRT
  MRT: 1.54 h
In vivo; po, 2 mg/kg, t1/2,ß
  half-life: 1.6 h
In vivo; po, 2 mg/kg, tmax
  Tmax: 0.5 h

Reference: patent publication US10723726B2, “Solid forms of (Z)-4-(5-((3-benzyl-4-oxo-2-thioxothiazolidin-5-ylidene)methyl)furan-2-yl)benzoic acid” (GB006, INC., priority 2015, dated 2020)
